Data set [1] is described as follows: Unbound fraction in human plasma at 5 uM measured after 24 hrs by LC-MS/MS analysis. In kind it is ADME, cell-free.
The target in data set [2] is Signal peptidase I (Escherichia coli K-12) (UniProt P00803). As to the kind of experiment: Inhibition of LepB in Escherichia coli IMP assessed as antibacterial activity by measuring reduction in bacterial growth incubated for 18 hrs by two-fold serial dilution method.
For data set [3], the system named is Escherichia coli. As to the kind of experiment: Antibacterial activity against Escherichia coli 25922 incubated for 18 hrs in presence of 50% mouse serum by two-fold serial dilution method. In kind it is functional.
The subject of data set [4] is Escherichia coli. Briefly: Antibacterial activity against Escherichia coli 25922 incubated for 18 hrs by two-fold serial dilution method. Format: functional.

≈ marks a conversion by molar mass, not a printed value.

Sequence of Signal peptidase I (Escherichia coli K-12) (P00803 whole entry): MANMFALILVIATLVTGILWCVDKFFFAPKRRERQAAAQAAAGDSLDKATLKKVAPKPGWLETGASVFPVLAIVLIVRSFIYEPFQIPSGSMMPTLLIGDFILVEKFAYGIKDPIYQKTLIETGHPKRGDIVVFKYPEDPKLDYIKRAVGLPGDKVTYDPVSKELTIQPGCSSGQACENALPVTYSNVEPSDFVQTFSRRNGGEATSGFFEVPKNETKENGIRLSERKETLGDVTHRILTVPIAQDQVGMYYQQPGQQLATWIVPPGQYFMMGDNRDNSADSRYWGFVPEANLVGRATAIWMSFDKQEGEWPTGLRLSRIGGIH

As for `Cc1cc(-c2ccc(Cl)cc2)ccc1C(=O)N[C@@H](CCN)C(=O)N(C)[C@@H]1C(=O)N[C@@H](C)C(=O)N[C@H](C(=O)NCC#N)Cc2ccc(OCCN)c(c2)-c2cc1ccc2OCCN`, in data set [1], the fraction unbound – broadly, the share of the substance not bound to proteins or other matrix – at 24 h, 5 µM was found to be 0.13. Moreover, the MIC in data set [2] came out at 0.01 µg/mL (≈ 0.0115 µM); with Escherichia coli [3], 2.3 µg/mL; against Escherichia coli [4], 0.83 µg/mL (≈ 0.958 µM).
Molecule `Cc1cc(-c2ccc(C(C)(C)C)cc2)nc(N)c1C(=O)N[C@@H](CCN)C(=O)N(C)[C@@H]1C(=O)N[C@@H](C)C(=O)N[C@H](C(=O)NCC#N)Cc2ccc(OCCN)c(c2)-c2cc1ccc2OCCN` registered a fraction unbound at 24 h, 5 µM in data set [1] of 0.058. The MIC in data set [2] was 0.007 µg/mL (≈ 0.00774 µM); with Escherichia coli [3], 0.45 µg/mL; in the data set with Escherichia coli [4], 0.23 µg/mL (≈ 0.254 µM).
The molecule `Cc1cc(-c2ccc(CC(C)C)cc2)ccc1C(=O)N[C@@H](CCN)C(=O)N(C)[C@@H]1C(=O)N[C@@H](C)C(=O)N[C@H](C(=O)NCC#N)Cc2ccc(OCCN)c(c2)-c2cc1ccc2OCCN` came in with a free fraction (fraction unbound) at 24 h, 5 µM in data set [1] of 0.001. For the same molecule, the MIC worked out at 0.006 µg/mL (≈ 0.00676 µM) in data set [2], 0.83 µg/mL with Escherichia coli [3] and 0.08 µg/mL (≈ 0.0901 µM) against Escherichia coli [4].
The like results for `CCCCCCCCCCCCC(=O)N[C@@H](CCN)C(=O)N(C)[C@@H]1C(=O)N[C@@H](C)C(=O)N[C@H](C(=O)NCC#N)Cc2ccc(OCCN)c(c2)-c2cc1ccc2OCCN` were, in that order, 0.01, 0.007 µg/mL (≈ 0.00839 µM), 3.8 µg/mL and 0.23 µg/mL (≈ 0.276 µM).
Turning to `Cc1cc(-c2ccc(C(C)(C)C)cc2)ncc1C(=O)N[C@@H](CCN)C(=O)N(C)[C@@H]1C(=O)N[C@@H](C)C(=O)N[C@H](C(=O)NCC#N)Cc2ccc(OCCN)c(c2)-c2cc1ccc2OCCN`, the fraction unbound at 24 h, 5 µM in data set [1] came to 0.11. The results for the MIC (in data set [2]; in the data set on Escherichia coli [3]; with Escherichia coli [4]) were 0.004 µg/mL (≈ 0.0045 µM), 0.24 µg/mL and 0.12 µg/mL (≈ 0.135 µM), respectively.
The like results for `Cc1cc(-c2ccc(-c3ccccc3)cc2)ccc1C(=O)N[C@@H](CCN)C(=O)N(C)[C@@H]1C(=O)N[C@@H](C)C(=O)N[C@H](C(=O)NCC#N)Cc2ccc(OCCN)c(c2)-c2cc1ccc2OCCN` were, in that order, 0.017, 0.043 µg/mL (≈ 0.0474 µM), 1.5 µg/mL and 0.22 µg/mL (≈ 0.242 µM).
Turning to `CCCCCCCCCCC(=O)N[C@@H](CCN)C(=O)N(C)[C@@H]1C(=O)N[C@@H](C)C(=O)N[C@H](C(=O)NCC#N)Cc2ccc(OCCN)c(c2)-c2cc1ccc2OCCN`, the fraction unbound at 24 h, 5 µM in data set [1] is 0.09. The MIC stood at 0.023 µg/mL (≈ 0.0285 µM) in data set [2], 15 µg/mL in the data set with Escherichia coli [3] and 3.8 µg/mL (≈ 4.71 µM) with Escherichia coli [4].
The corresponding values for `CCCCCCCC(=O)N[C@@H](CCN)C(=O)N(C)[C@@H]1C(=O)N[C@@H](C)C(=O)N[C@H](C(=O)NCC#N)Cc2ccc(OCCN)c(c2)-c2cc1ccc2OCCN` are 0.59, 0.35 µg/mL (≈ 0.458 µM), 60 µg/mL and 31 µg/mL (≈ 40.6 µM).
The corresponding values for `Cc1cc(-c2ccccc2)ccc1C(=O)N[C@@H](CCN)C(=O)N(C)[C@@H]1C(=O)N[C@@H](C)C(=O)N[C@H](C(=O)NCC#N)Cc2ccc(OCCN)c(c2)-c2cc1ccc2OCCN` are 0.34, 0.023 µg/mL (≈ 0.0276 µM), 2 µg/mL and 3 µg/mL (≈ 3.61 µM).

The record behind these values is ChEMBL document CHEMBL5370681, “Lipid Tales: Optimizing Arylomycin Membrane Anchors” (ACS Med Chem Lett, 2023).
